From ChEMBL document CHEMBL4680316, “JNK selective inhibitor, IQ-1S, protects the mice against lipopolysaccharides-induced sepsis” (2021)
Calls of active or inactive are those of the source. The calls are words filed in the database; no cut-off is given here.

Legend:
BMDM [1] = test: Antiinflammatory activity in LPS-induced sepsis C57BL/6 mouse BMDM cells assessed as reduction in IL-1beta mRNA expression at 1 uM treated 1 hr before LPS stimulation and measured after 2 and 6 hrs by qRT-PCR analysis; type: functional, cell-based; conditions: time 2-6 hrs
BMDM [2] = test: Antiinflammatory activity in CpG-induced sepsis C57BL/6 mouse BMDM cells assessed as reduction in IL-6 mRNA expression at 1 uM treated 1 hr before CpG stimulation by qRT-PCR analysis; type: functional, cell-based
BMDM [3] = test: Antiinflammatory activity in CpG-induced sepsis C57BL/6 mouse BMDM cells harboring JNK assessed as reduction in IL-6 mRNA expression at 1 uM pretreated for 1 hr by qRT-PCR analysis; type: functional, cell-based
BMDM [4] = test: Induction of IL-4-induced polarization of C57BL/6 mouse BMDM cells to M2 assessed as Mrc mRNA expression at 1 uM pretreated for 1 hr by qRT-PCR analysis; type: functional, cell-based
BMDM [5] = test: Inhibition of JNK signalling in LPS-induced sepsis wild type C57BL/6 mouse BMDM cells assessed as reduction in AP-1 expression at 1 uM pretreated for 1 hr by Western blot assay; type: cell-based
Mus musculus [6] = test: (§1) Antiinflammatory activity in wild type C57BL/6 mouse model of LPS and D-galactosamine-induced sepsis assessed as decrease in serum IL-6 level at 50 to 200 ug, ip administered 2 hrs after LPS and D-galactosamine administration and measured after 10 hrs of post LPS administration by ELISA; type: functional, organism-based; conditions: dose 50-200 µg, time 8.0 hrs
BMDM [7] = test: Antiinflammatory activity in LPS-induced sepsis C57BL/6 mouse BMDM cells assessed as reduction in IL-1beta secretion at 1 uM treated 1 hr before LPS stimulation and measured after 12 and 24 hrs by ELISA; type: functional, cell-based; conditions: time 12-24 hrs
BMDM [8] = test: Antiinflammatory activity in CpG-induced sepsis C57BL/6 mouse BMDM cells assessed as reduction in IL-1beta secretion at 1 uM treated 1 hr before CpG stimulation and measured after 12 and 24 hrs by ELISA; type: functional, cell-based; conditions: time 12-24 hrs
Mus musculus [9] = test: Antiinflammatory activity in C57BL/6 mouse model of LPS-induced sepsis assessed as CD8+ cells in spleen at 200 ug, iv administered 2 hrs after LPS administration and measured after 10 hrs of post LPS administration by flow cytometry analysis (reference value: 13 %); type: functional; conditions: dose 200 µg; time 8 hrs
BMDM [10] = test: Antiinflammatory activity in LPS-induced sepsis C57BL/6 mouse BMDM cells assessed as reduction in IL-6 secretion at 1 uM treated 1 hr before LPS stimulation and measured after 12 and 24 hrs by ELISA; type: functional, cell-based; conditions: time 12-24 hrs
BMDM [11] = test: Inhibition of JNK signalling in LPS-induced sepsis wild type C57BL/6 mouse BMDM cells assessed as reduction in NF-kappaB expression at 1 uM pretreated for 1 hr by Western blot assay; type: cell-based
BMDM [12] = test: Inhibition of JNK signalling in LPS-induced sepsis wild type C57BL/6 mouse BMDM cells assessed as reduction in p38 phosphorylation at 1 uM pretreated for 1 hr by Western blot assay; type: cell-based
BMDM [13] = test: Antiinflammatory activity in CpG-induced sepsis C57BL/6 mouse BMDM cells assessed as reduction in TNF-alpha secretion at 1 uM treated 1 hr before CpG stimulation and measured after 12 and 24 hrs by ELISA; type: functional, cell-based; conditions: time 12-24 hrs
Mus musculus [14] = test: Antiinflammatory activity in wild type C57BL/6 mouse model of LPS and D-galactosamine-induced sepsis assessed as decrease in serum TNF-alpha level at 50 to 200 ug, ip administered 2 hrs after LPS and D-galactosamine administration and measured after 10 hrs of post LPS administration by ELISA; type: functional, organism-based; conditions: dose 50-200 µg, time 8.0 hrs
BMDM [15] = test: Antiinflammatory activity in CpG-induced sepsis C57BL/6 mouse BMDM cells assessed as reduction in TNF-alpha mRNA expression at 1 uM treated 1 hr before CpG stimulation by qRT-PCR analysis; type: functional, cell-based
BMDM [16] = test: Antiinflammatory activity in LPS-induced sepsis C57BL/6 mouse BMDM cells assessed as reduction in IL-6 mRNA expression at 1 uM treated 1 hr before LPS stimulation and measured after 2 and 6 hrs by qRT-PCR analysis; type: functional, cell-based; conditions: time 2-6 hrs
BMDM [17] = test: Antiinflammatory activity in CpG-induced sepsis C57BL/6 mouse BMDM cells assessed as reduction in IL-1beta mRNA expression at 1 uM treated 1 hr before CpG stimulation by qRT-PCR analysis; type: functional, cell-based
Mus musculus [18] = test: Antiinflammatory activity in C57BL/6 mouse model of LPS-induced sepsis assessed as CD4 cells in spleen at 200 ug, iv administered 2 hrs after LPS administration and measured after 10 hrs of post LPS administration by flow cytometry analysis (reference value: 23.8 %); type: functional; conditions: dose 200 µg; time 8 hrs
BMDM [19] = test: Antiinflammatory activity in CpG-induced sepsis C57BL/6 mouse BMDM cells assessed as reduction in IL-6 secretion at 1 uM treated 1 hr before CpG stimulation and measured after 12 and 24 hrs by ELISA; type: functional, cell-based; conditions: time 12-24 hrs
BMDM [20] = test: Antiinflammatory activity in LPS-induced sepsis C57BL/6 mouse BMDM cells assessed as reduction in TNF-alpha secretion at 1 uM treated 1 hr before LPS stimulation and measured after 12 and 24 hrs by ELISA; type: functional, cell-based; conditions: time 12-24 hrs
Mus musculus [21] = test: Antiinflammatory activity in C57BL/6 mouse model of LPS-induced sepsis assessed as neutrophils in spleen at 200 ug, iv administered 2 hrs after LPS administration and measured after 10 hrs of post LPS administration by flow cytometry analysis (reference value: 24.8 %); type: functional; conditions: dose 200 µg; time 8 hrs
BMDM [22] = test: Antiinflammatory activity in CpG-induced sepsis C57BL/6 mouse BMDM cells harboring JNK assessed as reduction in Nos2 mRNA expression at 1 uM pretreated for 1 hr by qRT-PCR analysis; type: functional, cell-based
BMDM [23] = test: Inhibition of JNK signalling in LPS-induced sepsis wild type C57BL/6 mouse BMDM cells assessed as reduction in IKKbeta phosphorylation at 1 uM pretreated for 1 hr by Western blot assay; type: cell-based
Mus musculus [24] = test: Antiinflammatory activity in C57BL/6 mouse model of LPS-induced sepsis assessed as macrophages in spleen at 200 ug, iv administered 2 hrs after LPS administration and measured after 10 hrs of post LPS administration by flow cytometry analysis (reference value: 9.69 %); type: functional; conditions: dose 200 µg; time 8 hrs
BMDM [25] = test: Induction of IL-4-induced polarization of C57BL/6 mouse BMDM cells to M2 assessed as Arg mRNA expression at 1 uM pretreated for 1 hr by qRT-PCR analysis; type: functional, cell-based
BMDM [26] = test: Inhibition of JNK signalling in LPS-induced sepsis wild type C57BL/6 mouse BMDM cells assessed as reduction in IkappaBalpha phosphorylation at 1 uM pretreated for 1 hr by Western blot assay; type: cell-based
BMDM [27] = test: Inhibition of JNK signalling in LPS-induced sepsis wild type C57BL/6 mouse BMDM cells assessed as reduction in JNK-2 phosphorylation at 1 uM pretreated for 1 hr by Western blot assay; type: cell-based
Mus musculus [28] = test: Antiinflammatory activity in wild type C57BL/6 mouse model of LPS and D-galactosamine-induced sepsis assessed as survival of organism at 50 to 200 ug, iv administered 2 hrs before LPS and D-galactosamine administration and observed for 20 hrs; type: functional, organism-based; conditions: dose 50-200 µg, time 22.0 hrs
BMDM [29] = test: Antiinflammatory activity in LPS-induced sepsis C57BL/6 mouse BMDM cells assessed as reduction in TNF-alpha mRNA expression at 1 uM treated 1 hr before LPS stimulation and measured after 2 and 6 hrs by qRT-PCR analysis; type: functional, cell-based; conditions: time 2-6 hrs
Mus musculus [30] = test: Antiinflammatory activity in wild type C57BL/6 mouse model of LPS and D-galactosamine-induced sepsis assessed as decrease in serum IL-1beta level at 50 to 200 ug, ip administered 2 hrs after LPS and D-galactosamine administration and measured after 10 hrs of post LPS administration by ELISA; type: functional, organism-based; conditions: dose 50-200 µg, time 8.0 hrs
Mus musculus [31] = test: as §1, with “area of immune cells in lungs” for “serum IL-6 level”, “H and E staining based imaging analysis” for “ELISA”; type: functional, organism-based; conditions: dose 50-200 µg, time 8.0 hrs
BMDM [32] = test: Antiinflammatory activity in CpG-induced sepsis C57BL/6 mouse BMDM cells harboring JNK assessed as reduction in TNF mRNA expression at 1 uM pretreated for 1 hr by qRT-PCR analysis; type: functional, cell-based

SMILES: [Na+].[O-]/N=C1/c2ccccc2-c2nc3ccccc3nc21
- Activity (BMDM [1]): Active
- Activity (BMDM [2]): Active
- Activity (BMDM [3]): Active
- Activity (BMDM [4]): inactive
- inhibition (BMDM [5]): Active
- Activity (Mus musculus [6]): Active
- Activity (BMDM [7]): Active
- Activity (BMDM [8]): Active
- Activity (Mus musculus [9]): 9.2%
- Activity (BMDM [10]): Active
- inhibition (BMDM [11]): inactive
- inhibition (BMDM [12]): Active
- Activity (BMDM [13]): Active
- Activity (Mus musculus [14]): Active
- Activity (BMDM [15]): Active
- Activity (BMDM [16]): Active
- Activity (BMDM [17]): Active
- Activity (Mus musculus [18]): 17.2%
- Activity (BMDM [19]): Active
- Activity (BMDM [20]): Active
- Activity (Mus musculus [21]): 18.8%
- Activity (BMDM [22]): Active
- inhibition (BMDM [23]): Active
- Activity (Mus musculus [24]): 8.6%
- Activity (BMDM [25]): inactive
- inhibition (BMDM [26]): Active
- inhibition (BMDM [27]): Active
- Activity (Mus musculus [28]): Active
- Activity (BMDM [29]): Active
- Activity (Mus musculus [30]): Active
- Activity (Mus musculus [31]): Active
- Activity (BMDM [32]): Active
